Data as given in patent publication US20230159556A1, “NOVEL PROTEIN KINASE INHIBITORS” (TENOVA PHARMACEUTICALS INC., priority 2020, published 2023).

What was measured:
EGFR_L858R/T790M/C797S = molecular target: T1, EGFR_L858R/T790M/C797S (Homo sapiens, UniProt P00533, C797S/L858R/T790M); assay: In vitro biochemical kinase assay (33P-ATP filter-binding, Reaction Biology)
T1 construct: Reaction Biology Corporation (contract assay provider)
Procedure: (§1) The biochemical kinase assay was performed at Reaction Biology Corporation (www.reactionbiology.com, Malvern, Pa.) following procedures described in the reference (Anastassiadis, T, et al, Nature Biotechnology, 2011, 29, 1039). Base Reaction buffer includes 20 mM Hepes (pH 7.5), 10 mM MgCl2, 1 mM EGTA, 0.02% Brij35, 0.02 mg/ml BSA, 0.1 mM Na3VO4, 2 mM DTT and 1% DMSO. Required cofactors are added individually to each kinase reaction. Testing compounds were dissolved in 100% DMSO to specific concentration. The serial dilution was conducted by Integra Viaflo Assist in DMSO. Compounds in 100% DMSO are into the kinase reaction mixture by Acoustic technology (Echo550; nanoliter range), incubate for 20 min at room temperature, followed by ^33P-ATP and incubation for 2 hours at room temperature. Radioactivity was then detected by filter-binding method. Kinase activity data were expressed as the percent remaining kinase activity in test samples compared to vehicle (dimethyl sulfoxide) reactions. IC50 values and curve fits were obtained using Prism (GraphPad Software).

EGFR_WT = molecular target: T2, EGFR_WT (Homo sapiens, UniProt P00533); assay: as above
T2 construct: Reaction Biology Corporation (contract assay provider)
Procedure: as §1

[1] = molecular target: Ba/F3_EGFR_del19/T790M/C797S cell (Homo sapiens, UniProt P00533, T790M/C797S, cells depend on it, form not given); assay: BaF3 cell proliferation assay (CelltiterGlo, 72 hr); type: cell-based; details: 72 hr incubation; read-out: IC50 (nM, Ba/F3_EGFR_del19/T790M/C797S cell proliferation)
Procedure: (§2) The BaF3 cell proliferation assay was performed at Pharmaron (www.pharmaron.com, Beijing, China). The Ba/F3_WT and Ba/F3_Del19/T790M/C797S cell lines were maintained in 1640 medium containing 10% FBS, 1*PS and 1*Glutamax. Only cells with viability greater than 90% are used for assays. Dispense 30 μl of cell suspension at 700/well into 384 well microplate, add 30 nl compound solution into 384 cell plate by Echo, cells were incubated for 72 hr in 37° C./5% CO2 incubator, add 30 μl reagent CelltiterGlo assay kit (CTG, Promega) per well and shake plates, incubate the plate (avoiding light) at 37° C./5% CO2 for 30 min. and read the luminescence by Envision. The luminescence values were converted to % Inhibition. Calculate IC50 by fitting % inhibition values and log of compound concentrations to nonlinear regression (dose response−variable slope) with Graphpad 5.0.
(§3) Y=Bottom+(Top−Bottom)/(1+10^((Log IC50−X)*HillSlope))
(§4) X: log of inhibitor concentration; Y: % Inhibition.

Ba/F3_WT cell = assay: as above; type: cell-based; details: Mus musculus, 72 hr incubation
Procedure: as §2, §3, §4

T1 sequence (P00533 25-1210 T790M/C797S/L858R): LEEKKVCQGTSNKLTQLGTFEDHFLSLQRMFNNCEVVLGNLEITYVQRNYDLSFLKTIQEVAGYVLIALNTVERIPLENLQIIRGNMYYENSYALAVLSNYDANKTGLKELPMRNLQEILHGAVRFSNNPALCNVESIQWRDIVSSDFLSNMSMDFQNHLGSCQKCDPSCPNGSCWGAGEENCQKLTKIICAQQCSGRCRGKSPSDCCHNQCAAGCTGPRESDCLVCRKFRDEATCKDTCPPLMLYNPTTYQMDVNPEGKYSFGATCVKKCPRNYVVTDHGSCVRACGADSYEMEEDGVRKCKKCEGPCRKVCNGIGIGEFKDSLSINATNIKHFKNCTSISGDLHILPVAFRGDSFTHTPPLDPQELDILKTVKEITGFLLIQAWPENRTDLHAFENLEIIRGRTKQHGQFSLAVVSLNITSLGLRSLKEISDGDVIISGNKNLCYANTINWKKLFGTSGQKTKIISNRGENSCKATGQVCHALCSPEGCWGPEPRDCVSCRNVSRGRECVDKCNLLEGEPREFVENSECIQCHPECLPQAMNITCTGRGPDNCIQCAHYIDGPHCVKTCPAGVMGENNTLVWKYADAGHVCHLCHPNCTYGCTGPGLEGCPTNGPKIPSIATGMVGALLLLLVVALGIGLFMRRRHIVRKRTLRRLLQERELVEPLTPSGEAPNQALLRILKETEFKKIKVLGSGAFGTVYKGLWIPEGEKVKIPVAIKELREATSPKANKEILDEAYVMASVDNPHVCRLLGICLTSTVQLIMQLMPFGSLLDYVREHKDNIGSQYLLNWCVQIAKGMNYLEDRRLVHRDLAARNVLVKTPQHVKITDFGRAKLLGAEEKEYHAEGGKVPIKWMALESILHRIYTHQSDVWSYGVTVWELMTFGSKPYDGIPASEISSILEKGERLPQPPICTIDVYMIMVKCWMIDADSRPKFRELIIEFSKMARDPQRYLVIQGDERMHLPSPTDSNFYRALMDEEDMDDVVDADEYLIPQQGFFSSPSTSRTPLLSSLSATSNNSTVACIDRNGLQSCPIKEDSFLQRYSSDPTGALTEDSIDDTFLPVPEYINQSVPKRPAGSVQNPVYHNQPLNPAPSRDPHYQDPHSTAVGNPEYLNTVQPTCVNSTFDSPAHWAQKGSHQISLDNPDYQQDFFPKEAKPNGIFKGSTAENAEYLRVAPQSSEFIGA
Ba/F3_EGFR_del19/T790M/C797S cell, sequence (P00533 with tags, fused parts or gaps DEL746-750/T790M/C797S, form open): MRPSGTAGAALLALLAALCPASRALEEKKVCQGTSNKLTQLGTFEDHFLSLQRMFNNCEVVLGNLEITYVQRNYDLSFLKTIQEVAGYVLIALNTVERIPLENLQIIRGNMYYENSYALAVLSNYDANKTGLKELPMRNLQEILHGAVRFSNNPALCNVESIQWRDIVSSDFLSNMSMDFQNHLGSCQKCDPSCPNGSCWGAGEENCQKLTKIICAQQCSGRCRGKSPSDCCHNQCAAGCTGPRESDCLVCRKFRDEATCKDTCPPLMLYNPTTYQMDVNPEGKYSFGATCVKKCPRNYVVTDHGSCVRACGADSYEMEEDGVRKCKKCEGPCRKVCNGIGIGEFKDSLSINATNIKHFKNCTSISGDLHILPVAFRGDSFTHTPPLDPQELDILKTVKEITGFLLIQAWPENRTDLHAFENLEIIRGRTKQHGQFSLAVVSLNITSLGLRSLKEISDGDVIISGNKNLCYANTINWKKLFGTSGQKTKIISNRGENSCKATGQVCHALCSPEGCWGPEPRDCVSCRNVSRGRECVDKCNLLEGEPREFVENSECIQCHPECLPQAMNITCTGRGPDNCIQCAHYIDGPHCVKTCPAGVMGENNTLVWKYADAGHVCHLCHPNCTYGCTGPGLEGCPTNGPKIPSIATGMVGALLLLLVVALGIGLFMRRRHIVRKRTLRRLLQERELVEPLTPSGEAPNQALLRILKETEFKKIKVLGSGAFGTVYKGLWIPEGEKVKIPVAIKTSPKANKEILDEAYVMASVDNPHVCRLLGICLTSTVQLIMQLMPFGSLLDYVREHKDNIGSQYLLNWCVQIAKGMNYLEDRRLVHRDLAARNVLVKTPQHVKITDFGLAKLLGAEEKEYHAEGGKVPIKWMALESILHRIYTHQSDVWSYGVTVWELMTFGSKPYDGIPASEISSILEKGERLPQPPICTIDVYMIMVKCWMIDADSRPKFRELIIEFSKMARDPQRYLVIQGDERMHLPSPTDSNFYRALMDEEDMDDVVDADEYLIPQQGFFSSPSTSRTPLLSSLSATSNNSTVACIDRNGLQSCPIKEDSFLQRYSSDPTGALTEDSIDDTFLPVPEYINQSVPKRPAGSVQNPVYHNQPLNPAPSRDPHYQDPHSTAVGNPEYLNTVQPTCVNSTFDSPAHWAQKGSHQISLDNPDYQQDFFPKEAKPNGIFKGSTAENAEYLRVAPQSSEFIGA
T2 sequence (P00533 25-1210): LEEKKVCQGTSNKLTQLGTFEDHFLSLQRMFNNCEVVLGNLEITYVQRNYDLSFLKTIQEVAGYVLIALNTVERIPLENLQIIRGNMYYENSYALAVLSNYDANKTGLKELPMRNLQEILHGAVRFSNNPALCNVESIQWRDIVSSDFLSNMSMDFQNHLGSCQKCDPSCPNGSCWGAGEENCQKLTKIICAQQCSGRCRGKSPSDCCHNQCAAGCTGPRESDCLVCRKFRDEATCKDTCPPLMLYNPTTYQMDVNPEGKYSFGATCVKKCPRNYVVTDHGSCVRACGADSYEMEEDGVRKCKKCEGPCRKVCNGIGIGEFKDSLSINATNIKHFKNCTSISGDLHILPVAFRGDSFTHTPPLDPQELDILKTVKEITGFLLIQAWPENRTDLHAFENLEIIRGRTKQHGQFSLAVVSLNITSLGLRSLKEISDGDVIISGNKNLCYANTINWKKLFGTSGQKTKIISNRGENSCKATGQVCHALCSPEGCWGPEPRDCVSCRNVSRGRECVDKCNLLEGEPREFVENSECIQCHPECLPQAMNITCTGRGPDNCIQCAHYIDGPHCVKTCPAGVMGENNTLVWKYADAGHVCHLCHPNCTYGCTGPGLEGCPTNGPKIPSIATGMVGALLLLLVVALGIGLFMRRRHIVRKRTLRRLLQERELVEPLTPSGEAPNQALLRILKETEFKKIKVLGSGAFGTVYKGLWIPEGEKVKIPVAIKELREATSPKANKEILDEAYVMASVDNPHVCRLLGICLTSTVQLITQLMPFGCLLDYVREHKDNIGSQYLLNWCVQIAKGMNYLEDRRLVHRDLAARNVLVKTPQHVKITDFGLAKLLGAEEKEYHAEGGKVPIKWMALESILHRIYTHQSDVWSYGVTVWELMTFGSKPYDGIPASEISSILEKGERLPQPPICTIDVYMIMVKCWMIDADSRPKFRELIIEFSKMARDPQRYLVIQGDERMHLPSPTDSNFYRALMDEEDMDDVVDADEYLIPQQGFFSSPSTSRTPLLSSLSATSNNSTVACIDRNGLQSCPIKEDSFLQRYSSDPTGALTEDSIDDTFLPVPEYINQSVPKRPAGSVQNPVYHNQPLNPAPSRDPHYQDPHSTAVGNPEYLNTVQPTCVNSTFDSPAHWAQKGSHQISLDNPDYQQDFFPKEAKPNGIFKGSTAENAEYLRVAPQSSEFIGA

SMILES	IC50 (EGFR_L858R/T790M/C797S) [nM]	IC50 (EGFR_WT) [nM]	GI50 [1] [nM]	IC50 (Ba/F3_WT cell) [nM]
COc1cc(N2CCC(N3CCN(C)CC3)CC2)c2cc1Nc1ncc(Br)c(n1)Nc1ccc(cc1P(C)(C)=O)OCCCCC2 [Compound A33, (3^5-bromo-1^6-methoxy-1^4-(4-(4-methylpiperazin-1-yl)piperidin-1-yl)-6-oxa-2,4-diaza-3(2,4)-pyrimidina-1(1,3),5(1,4)-dibenzenacycloundecaphane-5^2-yl)dimethylphosphine oxide]	1.8	413	75	6490
COc1cc(N2CCN(C)CC2)c2cc1Nc1ncc(Br)c(n1)Nc1ccc(cc1P(C)(C)=O)OCCCC2 [Compound A35, (3^5-bromo-1^6-methoxy-1^4-(4-methylpiperazin-1-yl)-6-oxa-2,4-diaza-3(2,4)-pyrimidina-1(1,3),5(1,4)-dibenzenacyclodecaphane-5^2-yl)dimethylphosphine oxide]	289	–	1050	2240
COc1cc(N2CCC(N3CCN(C)CC3)CC2)c2cc1Nc1ncc(Cl)c(n1)Nc1ccc(cc1N(C)S(C)(=O)=O)OCCCCC2 [Compound A9, N-(3^5-chloro-1^6-methoxy-1^4-(4-(4-methylpiperazin-1-yl)piperidin-1-yl)-6-oxa-2,4-diaza-3(2,4)-pyrimidina-1(1,3),5(1,4)-dibenzenacycloundecaphane-5^2-yl)-N-methylmethanesulfonamide]	0.5	5.9	34	1390
COc1cc(N2C[C@H]3CN(C)C[C@H]3C2)c2cc1Nc1ncc(Cl)c(n1)Nc1ccc(cc1N(C)S(C)(=O)=O)OCCCCC2 [Compound A28, N-(3^5-chloro-1^6-methoxy-1^4-((cis-3,6)-5-methylhexahydropyrrolo[3,4-c]pyrrol-2(1H)-yl)-6-oxa-2,4-diaza-3(2,4)-pyrimidina-1(1,3),5(1,4)-dibenzenacycloundecaphane-5^2-yl)-N-methylmethanesulfonamide]	1.4	–	194	2970
COc1cc(N2CCN(C)CC2)c2cc1Nc1ncc(Cl)c(n1)Nc1ccc(cc1N(C)S(C)(=O)=O)OCCCC2 [Compound A4, N-(3^5-chloro-1^6-methoxy-1^4-(4-methylpiperazin-1-yl)-6-oxa-2,4-diaza-3(2,4)-pyrimidina-1(1,3),5(1,4)-dibenzenacyclodecaphane-5^2-yl)-N-methylmethanesulfonamide]	46.5	–	252	3320
COc1cc(N2CCN(C)CC2)c2cc1Nc1ncc(Cl)c(n1)Nc1ccc(cc1N(C)S(C)(=O)=O)OCCCCCC2 [Compound A14, N-(3^5-chloro-1^6-methoxy-1^4-(4-methylpiperazin-1-yl)-6-oxa-2,4-diaza-3(2,4)-pyrimidina-1(1,3),5(1,4)-dibenzenacyclododecaphane-5^2-yl)-N-methylmethanesulfonamide]	16.7	–	897	2960
COc1cc(N2CCC(N3CCOCC3)CC2)c2cc1Nc1ncc(Cl)c(n1)Nc1ccc(cc1N(C)S(C)(=O)=O)OCCCCC2 [Compound A32, N-(3^5-chloro-1^6-methoxy-1^4-(4-morpholinopiperidin-1-yl)-6-oxa-2,4-diaza-3(2,4)-pyrimidina-1(1,3),5(1,4)-dibenzenacycloundecaphane-5^2-yl)-N-methylmethanesulfonamide]	0.6	–	106	4840
COc1cc(N2CCN(C)CC2)c2cc1Nc1ncc(C(F)(F)F)c(n1)Nc1ccc(cc1N(C)S(C)(=O)=O)OCCCCC2 [Compound A13, N-(1^6-methoxy-1^4-(4-methylpiperazin-1-yl)-3^5-(trifluoromethyl)-6-oxa-2,4-diaza-3(2,4)-pyrimidina-1(1,3),5(1,4)-dibenzenacycloundecaphane-5^2-yl)-N-methylmethanesulfonamide]	2	–	108	3770
COc1cc(N2CCC(N(C)C)C2)c2cc1Nc1ncc(Cl)c(n1)Nc1ccc(cc1N(C)S(C)(=O)=O)OCCCCC2 (centres unmarked) [Compound A27, N-(3^5-chloro-1^4-(3-(dimethylamino)pyrrolidin-1-yl)-1^6-methoxy-6-oxa-2,4-diaza-3(2,4)-pyrimidina-1(1,3),5(1,4)-dibenzenacycloundecaphane-5^2-yl)-N-methylmethanesulfonamide]	2.3	–	330	3400
CCN(c1cc2ccc1Nc1nc(ncc1Cl)Nc1cc(c(N3CCN(C)CC3)cc1OC)CCCCCO2)S(C)(=O)=O [Compound A10, N-(3^5-chloro-1^6-methoxy-1^4-(4-methylpiperazin-1-yl)-6-oxa-2,4-diaza-3(2,4)-pyrimidina-1(1,3),5(1,4)-dibenzenacycloundecaphane-5^2-yl)-N-ethylmethanesulfonamide]	0.5	–	125	1840
COc1cc(N2CCC(N3CCN(C)CC3)CC2)c2cc1Nc1ncc(Cl)c(n1)Nc1ccc(cc1N(C)S(C)(=O)=O)OCCCCCC2 [Compound A15, N-(3^5-chloro-1^6-methoxy-1^4-(4-(4-methylpiperazin-1-yl)piperidin-1-yl)-6-oxa-2,4-diaza-3(2,4)-pyrimidina-1(1,3),5(1,4)-dibenzenacyclododecaphane-5^2-yl)-N-methylmethanesulfonamide]	0.5	–	195	2660
COc1cc(N2CCC(N3CCN(C)CC3)CC2)c2cc1Nc1ncc(Br)c(n1)Nc1ccc(cc1P(C)(C)=O)OCCCCCC2 [Compound A34, (3^5-bromo-1^6-methoxy-1^4-(4-(4-methylpiperazin-1-yl)piperidin-1-yl)-6-oxa-2,4-diaza-3(2,4)-pyrimidina-1(1,3),5(1,4)-dibenzenacyclododecaphane-5^2-yl)dimethylphosphine oxide]	2	–	142	3820
CCN(c1cc2ccc1Nc1nc(ncc1Cl)Nc1cc(c(N3CCN(C)CC3)cc1OC)CCCCCCO2)S(C)(=O)=O [Compound A23, N-(3^5-chloro-1^6-methoxy-1^4-(4-methylpiperazin-1-yl)-6-oxa-2,4-diaza-3(2,4)-pyrimidina-1(1,3),5(1,4)-dibenzenacyclododecaphane-5^2-yl)-N-ethylmethanesulfonamide]	2.6	–	157	2660
CCS(=O)(=O)N(C)c1cc2ccc1Nc1nc(ncc1Cl)Nc1cc(c(N3CCN(C)CC3)cc1OC)CCCCCO2 [Compound A8, N-(3^5-chloro-1^6-methoxy-1^4-(4-methylpiperazin-1-yl)-6-oxa-2,4-diaza-3(2,4)-pyrimidina-1(1,3),5(1,4)-dibenzenacycloundecaphane-5^2-yl)-N-methylethanesulfonamide]	2.7	–	538	3430
COc1cc(N2CCN(C3CCN(C)CC3)CC2)c2cc1Nc1ncc(Cl)c(n1)Nc1ccc(cc1N(C)S(C)(=O)=O)OCCCCC2 [Compound A20, N-(3^5-chloro-1^6-methoxy-1^4-(4-(1-methylpiperidin-4-yl)piperazin-1-yl)-6-oxa-2,4-diaza-3(2,4)-pyrimidina-1(1,3),5(1,4)-dibenzenacycloundecaphane-5^2-yl)-N-methylmethanesulfonamide]	2.6	–	89	1450
COc1cc(N2CCC(N3CCN(C)CC3)CC2)c2cc1Nc1ncc(Cl)c(n1)Nc1ccc(cc1S(=O)(=O)C(C)C)OCCCCC2 [Compound A26, 3^5-chloro-5^2-(isopropylsulfonyl)-16-methoxy-1^4-(4-(4-methylpiperazin-1-yl)piperidin-1-yl)-6-oxa-2,4-diaza-3(2,4)-pyrimidina-1(1,3),5(1,4)-dibenzenacycloundecaphane]	250	–	1110	1790
COc1cc(N2CCN(C)CC2)c2cc1Nc1ncc(Cl)c(n1)Nc1ccc(cc1P(C)(C)=O)OCCCCC2 [Compound A18, (3^5-chloro-1^6-methoxy-1^4-(4-methylpiperazin-1-yl)-6-oxa-2,4-diaza-3(2,4)-pyrimidina-1(1,3),5(1,4)-dibenzenacycloundecaphane-5^2-yl)dimethylphosphine oxide]	145	–	520	> 10000
